From PubChem BioAssay AID248 (DTP/NCI, 2004)
“And” between values parts separate entries of the source, which are not always exact repeats. Equal entries are not always repeated. Toxic doses and inconclusive results are not listed.

System: L1210 leukemia ip in BDF1 mice, survival T/C
Experiment: NCI In Vivo Anticancer Drug Screen. Data for tumor model L1210 Leukemia (intraperitoneal) in B6D2F1 (BDF1) mice
Conditions: endpoint: mean survival time, higher = longer survival
How it was run: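 Transplanted-tumor mice were given test agent; controls received vehicle only. Survival readings from the two groups were divided (treated over control).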

[1] = dose: 100.0 mg/kg/injection, schedule: Q01DX009 (ip), vehicle: saline with Tween-80
[2] = dose: 100.0 mg/kg/injection, schedule: Q04DX003 (ip), vehicle: saline with Tween-80
[3] = dose: 200.0 mg/kg/injection, schedule: Q04DX003 (ip), vehicle: saline with Tween-80
[4] = dose: 100.0 mg/kg/injection, schedule: Q01DX001 (ip), vehicle: saline
[5] = dose: 100.0 mg/kg/injection, schedule: Q01DX009 (ip), vehicle: saline
[6] = dose: 100.0 mg/kg/injection, schedule: Q04DX003 (ip), vehicle: saline
[7] = dose: 200.0 mg/kg/injection, schedule: Q01DX009 (ip), vehicle: saline
[8] = dose: 200.0 mg/kg/injection, schedule: Q04DX003 (ip), vehicle: saline
[9] = dose: 400.0 mg/kg/injection, schedule: Q01DX009 (ip), vehicle: saline
[10] = dose: 400.0 mg/kg/injection, schedule: Q04DX003 (ip), vehicle: saline

CN(C)N=Nc1ccccc1C(N)=O
T/C (dose: 20.0 mg/kg/injection, schedule: Q01DX009 (ip), vehicle: Klucel (hydroxypropylcellulose) (HPC)): 110 % of control | T/C (dose: 30.0 mg/kg/injection, schedule: Q01DX009 (ip), vehicle: Klucel (hydroxypropylcellulose) (HPC)): 110 % of control | T/C (dose: 31.25 mg/kg/injection, schedule: Q01DX009 (ip), vehicle: saline with Tween-80): 108 % of control | T/C (dose: 37.25 mg/kg/injection, schedule: Q01DX009 (ip), vehicle: saline with Tween-80): 112 % of control | T/C (dose: 37.5 mg/kg/injection, schedule: Q04DX003 (ip), vehicle: saline with Tween-80): 108 % of control | T/C (dose: 45.0 mg/kg/injection, schedule: Q01DX009 (ip), vehicle: Klucel (hydroxypropylcellulose) (HPC)): 119 % of control | T/C (dose: 55.25 mg/kg/injection, schedule: Q04DX003 (ip), vehicle: saline with Tween-80): 104 % of control | T/C (dose: 62.5 mg/kg/injection, schedule: Q01DX001 (ip), vehicle: saline with Tween-80): 111 % of control | T/C (dose: 67.0 mg/kg/injection, schedule: Q01DX009 (ip), vehicle: other): 120 % of control | T/C (dose: 67.0 mg/kg/injection, schedule: Q01DX009 (ip), vehicle: saline with Tween-80): 102 % of control | T/C (dose: 74.5 mg/kg/injection, schedule: Q01DX009 (ip), vehicle: saline with Tween-80): 119 % of control | T/C (dose: 75.0 mg/kg/injection, schedule: Q01DX001 (ip), vehicle: other): 107 % of control | T/C (dose: 75.0 mg/kg/injection, schedule: Q04DX003 (ip), vehicle: saline with Tween-80): 116 % of control | T/C [1]: 109 % of control | T/C (dose: 110.5 mg/kg/injection, schedule: Q04DX003 (ip), vehicle: saline with Tween-80): 122 % of control | T/C (dose: 125.0 mg/kg/injection, schedule: Q01DX001 (ip), vehicle: saline with Tween-80): 110 % of control | T/C (dose: 125.0 mg/kg/injection, schedule: Q01DX009 (ip), vehicle: saline with Tween-80): 86 % of control | T/C (dose: 149.0 mg/kg/injection, schedule: Q01DX009 (ip), vehicle: saline with Tween-80): 156 % of control | T/C (dose: 150.0 mg/kg/injection, schedule: Q01DX001 (ip), vehicle: other): 107 % of control | T/C (dose: 150.0 mg/kg/injection, schedule: Q01DX001 (ip), vehicle: saline with Tween-80): 109 % of control | T/C (dose: 150.0 mg/kg/injection, schedule: Q01DX009 (ip), vehicle: other): 150 % of control | T/C (dose: 150.0 mg/kg/injection, schedule: Q01DX009 (ip), vehicle: saline with Tween-80): 117 % of control | T/C (dose: 150.0 mg/kg/injection, schedule: Q04DX003 (ip), vehicle: saline with Tween-80): 120 % of control | T/C (dose: 221.0 mg/kg/injection, schedule: Q04DX003 (ip), vehicle: saline with Tween-80): 150 % of control | T/C (dose: 300.0 mg/kg/injection, schedule: Q01DX001 (ip), vehicle: other): 123 % of control | T/C (dose: 300.0 mg/kg/injection, schedule: Q04DX003 (ip), vehicle: saline with Tween-80): 106 % of control

Cc1cc(Br)c[nH]c1=O
T/C [2]: 98 % of control | T/C [3]: 98 % of control | T/C (dose: 400.0 mg/kg/injection, schedule: Q04DX003 (ip), vehicle: saline with Tween-80): 102 % of control

CC(=O)n1cc(CS)c(=O)[nH]c1=O
T/C [4]: 106 % of control

Nc1nnnc2nc[nH]c12
T/C (dose: 12.5 mg/kg/injection, schedule: Q01DX Z (ip), vehicle: carboxymethylcellulose (CMC)): 100 % of control | T/C (dose: 25.0 mg/kg/injection, schedule: Q01DX Z (ip), vehicle: carboxymethylcellulose (CMC)): 93 % of control

CCOC(=O)c1cnc(NN)nc1NCc1ccccc1
T/C (dose: 50.0 mg/kg/injection, schedule: Q01DX009 (ip), vehicle: saline with Tween-80): 93 % of control | T/C [1]: 89 % of control | T/C [2]: 87 % of control | T/C (dose: 200.0 mg/kg/injection, schedule: Q01DX009 (ip), vehicle: saline with Tween-80): 98 % of control | T/C [3]: 96 % of control

CCCCC(CCC)CCC
T/C (dose: 100.0 mg/kg/injection, schedule: Q04DX002 (ip), vehicle: saline with Tween-80): 103 % of control | T/C (dose: 200.0 mg/kg/injection, schedule: Q04DX002 (ip), vehicle: saline with Tween-80): 94 % of control | T/C (dose: 400.0 mg/kg/injection, schedule: Q04DX002 (ip), vehicle: saline with Tween-80): 106 % of control

c1ccc(C2COC3(CCCCC3)O2)cc1 (centres undefined)
T/C (dose: 222.0 mg/kg/injection, schedule: Q01DX Z (ip), vehicle: methylcellulose (MC)): 90 % of control | T/C (dose: 333.0 mg/kg/injection, schedule: Q01DX Z (ip), vehicle: methylcellulose (MC)): 95 % of control

CN(C)c1ccc(N=NC#N)cc1
T/C (dose: 1.56 mg/kg/injection, schedule: Q01DX009 (ip), vehicle: saline): 108 % of control | T/C (dose: 3.12 mg/kg/injection, schedule: Q01DX009 (ip), vehicle: saline): 105 % of control | T/C (dose: 6.25 mg/kg/injection, schedule: Q01DX009 (ip), vehicle: saline with Tween-80): 104 % of control | T/C (dose: 6.25 mg/kg/injection, schedule: Q01DX009 (ip), vehicle: saline): 105 % of control

C=C/C=C1\CCOC1=O
T/C [4]: 102 % of control | T/C [5]: 101 % of control and 112 % of control | T/C (dose: 100.0 mg/kg/injection, schedule: Q04DX002 (ip), vehicle: saline): 100 % of control and 111 % of control | T/C [6]: 112 % of control | T/C (dose: 200.0 mg/kg/injection, schedule: Q01DX001 (ip), vehicle: saline): 116 % of control | T/C [7]: 104 % of control and 118 % of control | T/C (dose: 200.0 mg/kg/injection, schedule: Q04DX002 (ip), vehicle: saline): 104 % of control | T/C [8]: 100 % of control | T/C (dose: 400.0 mg/kg/injection, schedule: Q01DX001 (ip), vehicle: saline): 110 % of control | T/C [9]: 107 % of control and 115 % of control | T/C (dose: 400.0 mg/kg/injection, schedule: Q04DX002 (ip), vehicle: saline): 100 % of control and 102 % of control | T/C [10]: 115 % of control

C(=C/c1ccc(/C=C/c2ccccc2)cc1)/c1ccccc1
T/C (dose: 100.0 mg/kg/injection, schedule: Q01DX009 (ip), vehicle: Klucel (hydroxypropylcellulose) (HPC)): 98 % of control | T/C (dose: 100.0 mg/kg/injection, schedule: Q04DX003 (ip), vehicle: Klucel (hydroxypropylcellulose) (HPC)): 98 % of control | T/C (dose: 200.0 mg/kg/injection, schedule: Q01DX009 (ip), vehicle: Klucel (hydroxypropylcellulose) (HPC)): 93 % of control | T/C (dose: 200.0 mg/kg/injection, schedule: Q04DX003 (ip), vehicle: Klucel (hydroxypropylcellulose) (HPC)): 104 % of control | T/C (dose: 400.0 mg/kg/injection, schedule: Q01DX009 (ip), vehicle: Klucel (hydroxypropylcellulose) (HPC)): 95 % of control | T/C (dose: 400.0 mg/kg/injection, schedule: Q04DX003 (ip), vehicle: Klucel (hydroxypropylcellulose) (HPC)): 90 % of control

CCCCCCCCCCCCCCCCCC(=O)OCCC(C)CCCC(C)C (centres undefined)
T/C (dose: 100.0 mg/kg/injection, schedule: Q04DX003 (ip), vehicle: other): 96 % of control | T/C (dose: 200.0 mg/kg/injection, schedule: Q04DX003 (ip), vehicle: other): 98 % of control | T/C (dose: 400.0 mg/kg/injection, schedule: Q04DX003 (ip), vehicle: other): 88 % of control

O=[N+]([O-])c1cccc(P(=O)(c2cccc([N+](=O)[O-])c2)c2cccc([N+](=O)[O-])c2)c1
T/C [5]: 101 % of control | T/C [6]: 93 % of control | T/C [7]: 101 % of control | T/C [8]: 104 % of control | T/C [9]: 95 % of control | T/C [10]: 106 % of control

CCC1=C[C@H]2CN(CCc3c([nH]c4ccccc34)[C@@](C(=O)OC)(c3cc4c(cc3OC)N(C)[C@H]3[C@@](O)(C(=O)OC)[C@H](OC(C)=O)[C@]5(CC)C=CCN6CC[C@]43[C@@H]65)C2)C1
T/C (dose: 0.25 mg/kg/injection, schedule: Q01DX009 (ip), vehicle: water): 109 % of control | T/C (dose: 0.5 mg/kg/injection, schedule: Q01DX009 (ip), vehicle: water): 101 % of control | T/C (dose: 1.0 mg/kg/injection, schedule: Q01DX009 (ip), vehicle: water): 111 % of control | T/C (dose: 2.0 mg/kg/injection, schedule: Q01DX009 (ip), vehicle: water): 103 % of control | T/C (dose: 4.0 mg/kg/injection, schedule: Q01DX009 (ip), vehicle: water): 114 % of control | T/C (dose: 8.0 mg/kg/injection, schedule: Q01DX009 (ip), vehicle: water): 112 % of control

O=C1C(Cl)CCCCC1Cl (centres undefined)
T/C (dose: 100.0 mg/kg/injection, schedule: Q01DX009 (ip), vehicle: acetone): 93 % of control | T/C (dose: 100.0 mg/kg/injection, schedule: Q04DX003 (ip), vehicle: acetone): 111 % of control | T/C (dose: 200.0 mg/kg/injection, schedule: Q01DX009 (ip), vehicle: acetone): 91 % of control | T/C (dose: 200.0 mg/kg/injection, schedule: Q04DX003 (ip), vehicle: acetone): 111 % of control | T/C (dose: 400.0 mg/kg/injection, schedule: Q04DX003 (ip), vehicle: acetone): 92 % of control
